Our source for the IC50 values is patent publication US11827627B2, “N-(hydroxyalkyl (hetero)aryl) tetrahydrofuran carboxamides as modulators of sodium channels” (VERTEX PHARMACEUTICALS INCORPORATED, priority 2021, dated 2023).

In general, IC50 refers to the concentration needed to halve the response being measured. Low values mean greater potency in that assay, high ones weaker potency in that assay.

Chain of human NaV 1.8 (Q9Y5Y9 126-1722 limits assumed): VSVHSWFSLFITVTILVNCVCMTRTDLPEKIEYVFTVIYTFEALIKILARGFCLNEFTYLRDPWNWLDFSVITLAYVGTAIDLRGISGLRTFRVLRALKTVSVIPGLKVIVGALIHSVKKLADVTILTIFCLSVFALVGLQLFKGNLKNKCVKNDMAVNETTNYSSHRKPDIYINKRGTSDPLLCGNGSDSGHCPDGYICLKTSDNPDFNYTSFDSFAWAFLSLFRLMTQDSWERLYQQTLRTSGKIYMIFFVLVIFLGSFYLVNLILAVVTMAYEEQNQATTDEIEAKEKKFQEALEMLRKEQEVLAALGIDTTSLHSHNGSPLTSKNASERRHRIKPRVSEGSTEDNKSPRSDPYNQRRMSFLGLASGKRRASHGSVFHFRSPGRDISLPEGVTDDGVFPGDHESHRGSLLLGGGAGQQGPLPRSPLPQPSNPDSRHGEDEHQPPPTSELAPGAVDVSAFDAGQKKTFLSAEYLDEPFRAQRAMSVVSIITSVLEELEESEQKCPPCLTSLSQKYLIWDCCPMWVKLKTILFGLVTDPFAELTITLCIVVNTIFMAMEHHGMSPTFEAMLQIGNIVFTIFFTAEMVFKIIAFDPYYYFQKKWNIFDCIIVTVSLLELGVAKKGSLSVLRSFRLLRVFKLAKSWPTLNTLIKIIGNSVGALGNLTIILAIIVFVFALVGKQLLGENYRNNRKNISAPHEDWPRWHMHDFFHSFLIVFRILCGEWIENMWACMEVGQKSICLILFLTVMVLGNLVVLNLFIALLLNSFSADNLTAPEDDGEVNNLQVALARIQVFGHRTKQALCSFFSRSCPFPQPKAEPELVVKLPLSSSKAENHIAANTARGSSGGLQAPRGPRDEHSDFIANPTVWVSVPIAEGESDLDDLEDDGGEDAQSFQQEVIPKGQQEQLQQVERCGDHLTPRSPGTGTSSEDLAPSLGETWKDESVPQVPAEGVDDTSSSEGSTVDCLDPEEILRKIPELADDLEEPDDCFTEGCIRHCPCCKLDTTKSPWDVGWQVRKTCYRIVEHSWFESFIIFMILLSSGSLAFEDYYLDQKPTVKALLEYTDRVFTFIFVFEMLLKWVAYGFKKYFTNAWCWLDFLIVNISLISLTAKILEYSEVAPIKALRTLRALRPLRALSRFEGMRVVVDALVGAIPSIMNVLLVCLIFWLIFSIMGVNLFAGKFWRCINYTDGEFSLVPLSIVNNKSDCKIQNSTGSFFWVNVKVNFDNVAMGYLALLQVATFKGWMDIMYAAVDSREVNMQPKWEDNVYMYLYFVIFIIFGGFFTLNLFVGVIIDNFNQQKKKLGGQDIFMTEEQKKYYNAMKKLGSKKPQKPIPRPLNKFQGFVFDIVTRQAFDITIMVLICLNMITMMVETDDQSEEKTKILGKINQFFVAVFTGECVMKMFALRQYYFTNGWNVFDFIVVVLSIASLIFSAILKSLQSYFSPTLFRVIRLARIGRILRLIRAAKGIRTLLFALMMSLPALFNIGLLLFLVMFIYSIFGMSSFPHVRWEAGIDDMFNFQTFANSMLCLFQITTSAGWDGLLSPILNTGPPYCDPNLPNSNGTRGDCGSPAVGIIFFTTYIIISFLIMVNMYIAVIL

The test has as its target human NaV 1.8 (Homo sapiens, UniProt Q9Y5Y9). In words: E-VIPR assay detecting and measuring NaV inhibition properties. It is filed as cell-based. The following applies: HEK cells expressing a truncated form of human NaV 1.8; electrical stimulation, membrane potential FRET dyes. An excerpt:
E-VIPR Assay Detecting and Measuring NaV Inhibition Properties
Sodium ion channels are voltage-dependent proteins that can be activated by inducing membrane voltage changes by applying electric fields. The electrical stimulation instrument and methods of use, referred to as E-VIPR, are described in International Publication No. WO 2002/008748 A3 and C.-J. Huang et al. Characterization of voltage-gated sodium channel blockers by electrical stimulation and fluorescence detection of membrane potential, 24 Nature Biotech. 439-46 (2006), both of which are incorporated by reference in their entirety. The instrument comprises a microtiter plate handler, an optical system for exciting the coumarin dye while simultaneously recording the coumarin and oxonol emissions, a waveform generator, a current- or voltage-controlled amplifier, and parallel electrode pairs that are inserted into assay plate wells. Under integrated computer control, this instrument passes user-programmed electrical stimulus protocols to cells within the wells of the microtiter plate.
16-20 hours prior to running the assay on E-VIPR, HEK cells expressing a truncated form of human NaV 1.8 with full channel activity were seeded into microtiter 384-well plates, pre-coated with matrigel, at a density of 25,000 cells per well. 2.5-5% KIR2.1 Bacmam virus was added to the final cell suspension before seeding into cell plates. HEK cells were grown in Dulbecco's Modified Eagle's Medium (DMEM) supplemented with 10% FBS (Fetal Bovine Serum, qualified; Sigma #F4135), 1% NEAA (Non-Essential Amino Acids, Gibco #11140), 1% HEPES (Gibco #15630), 1% Pen-Strep (Penicillin-Streptomycin; Gibco #15140) and 5 μg/ml Blasticidin (Gibco #R210-01). Cells were expanded in vented cap cell culture flasks, with 90-95% humidity and 5% CO2.
Reagents and Stock Solutions:
100 mg/mL Pluronic F-127 (Sigma #P2443), in dry DMSO
Compound Plates: Corning 384-well Polypropylene Round Bottom #3656
Cell Plates: 384-well tissue culture treated plates (Greiner #781091-2B)
2.5-5% KIR 2.1 Bacmam virus (produced in-house), prepared as described in Section 3.3 of J. A. Fornwald et al., Gene Expression in Mammalian Cells Using BacMam, a Modified Baculovirus System, 1350 Methods in Molecular Biology 95-116 (2016), the entire contents of which are incorporated by reference. The concentration used can be dependent on viral titer of each batch.
5 mM DiSBAC6(3), a voltage sensitive oxonol acceptor (CAS number 169211-44-3; 5-[3-(1,3-dihexylhexahydro-4,6-dioxo-2-thioxo-5-pyrimidinyl)-2-propen-1-ylidene]-1,3-dihexyldihydro-2-thioxo-4,6(1H,5H)-pyrimidinedione), in dry DMSO. The preparation of DiSBAC6(3) is analogous to that of DiSBAC4(3) as described in Voltage Sensing by Fluorescence Resonance Energy Transfer in Single Cells, Gonzalez, J. E. and Tsien, R. Y. (1995) Biophys. J. 69, 1272-1280.
5 mM CC2-DMPE, a commercially available membrane-bound coumarin phospholipid FRET donor (ThermoFisher Scientific catalog number K1017, CAS number 393782-57-5; tetradecanoic acid, 1,1′-[(1R)-1-[8-(6-chloro-7-hydroxy-2-oxo-2H-1-benzopyran-3-yl)-3-hydroxy-3-oxido-8-oxo-2,4-dioxa-7-aza-3-phosphaoct-1-yl]-1,2-ethanediyl]ester) was prepared in dry DMSO. See also, Improved indicators of cell membrane potential that use fluorescence resonance energy transfer, Gonzalez, J. E. and Tsien, R. Y. (1997) Chem. Biol. 4, 269-277.
Voltage Assay Background Suppression Compound (VABSC-1) is prepared in H2O (89-363 mM, range used to maintain solubility)
Human Serum (HS, Millipore #S1P1-01KL, or Sigma SLBR5469V and SLBR5470V as a 50%/50% mixture, for 25% assay final concentration)
Bath 1 Buffer: • Sodium Chloride 160 mM (9.35 g/L), Potassium Chloride, 4.5 mM (0.335 g/L), Glucose 10 mM (1.8 g/L), Magnesium Chloride (Anhydrous) 1 mM (0.095 g/L), Calcium Chloride 2 mM (0.222 g/L), HEPES 10 mM (2.38 g/L) in water. […]
Regarding `COc1nc(C(F)F)ccc1[C@H]1[C@H](C(=O)Nc2ccc(CO)nc2)O[C@@](C)(C(F)(F)F)[C@H]1C` (stereo in doubt) [Compound 88, rel-(2R,3S,4S,5R)-3-(6-(difluoromethyl)-2-methoxypyridin-3-yl)-N-(6-(hydroxymethyl)pyridin-3-yl)-4,5-dimethyl-5-(trifluoromethyl)tetrahydrofuran-2-carboxamide], the IC50 lay within 100 to 1000 nM.
For `Cc1c([C@@H]2[C@@H](C(=O)Nc3ccc([C@@H](O)CO)nc3)O[C@@](C)(C(F)(F)F)[C@H]2C)ccc(F)c1F` (single isomer, unassigned) [Compound 65, rel-(2S,3R,4S,5R)-3-(3,4-difluoro-2-methylphenyl)-N-(6-((R*)-1,2-dihydroxyethyl)pyridin-3-yl)-4,5-dimethyl-5-(trifluoromethyl)tetrahydrofuran-2-carboxamide] the value was no less than 1000 nM; for `C[C@H]1[C@@H](c2ccc(F)c(F)c2OCCF)[C@H](C(=O)Nc2ccc([C@@H](O)CO)nc2)O[C@@]1(C)C(F)(F)F` [Compound 37, (2R,3S,4S,5R)-3-(3,4-difluoro-2-(2-fluoroethoxy)phenyl)-N-(6-((R)-1,2-dihydroxyethyl)pyridin-3-yl)-4,5-dimethyl-5-(trifluoromethyl)tetrahydrofuran-2-carboxamide], less than 10 nM.
In turn, `COCCC(O)c1ccc(NC(=O)[C@@H]2O[C@@](C)(C(F)(F)F)[C@@H](C)[C@H]2c2ccc(F)c(F)c2OC)cn1` (single isomer, unassigned) [Compound 23, rel-(2R*,3S*,4S*,5R*)-3-(3,4-difluoro-2-methoxyphenyl)-N-(6-(1-hydroxy-3-methoxypropyl)pyridin-3-yl)-4,5-dimethyl-5-(trifluoromethyl)tetrahydrofuran-2-carboxamide] registered a half-inhibitory concentration (IC50) of 100 to 1000 nM.
For `COc1c([C@H]2[C@H](C(=O)Nc3ccc([C@H](C)O)nc3)O[C@@](C)(C(F)(F)F)[C@H]2C)ccc(F)c1F` [Compound 85, (2R,3S,4S,5R)-3-(3,4-difluoro-2-methoxyphenyl)-N-(6-((S)-1-hydroxyethyl)pyridin-3-yl)-4,5-dimethyl-5-(trifluoromethyl)tetrahydrofuran-2-carboxamide] the value was 10 to 100 nM; for `COc1c([C@@H]2C[C@](C)(C(F)(F)F)O[C@H]2C(=O)Nc2cnc(C(O)CO)nc2)ccc(F)c1F` (single isomer, unassigned) [Compound 29], 100 to 1000 nM; for `CCOc1c([C@@H]2[C@@H](C(=O)Nc3ccc([C@H](O)CO)nc3)O[C@](C)(C(F)(F)F)[C@@H]2C)ccc(F)c1C` (single isomer, unassigned) [Compound 43, rel-(2S,3R,4R,5S)-N-(6-((S*)-1,2-dihydroxyethyl)pyridin-3-yl)-3-(2-ethoxy-4-fluoro-3-methylphenyl)-4,5-dimethyl-5-(trifluoromethyl)tetrahydrofuran-2-carboxamide], no less than 1000 nM.
In the case of `COc1c([C@H]2[C@H](C(=O)Nc3cnc(CO)cn3)O[C@@](C)(C(F)(F)F)[C@H]2C)ccc(F)c1F` [Compound 86, (2R,3S,4S,5R)-3-(3,4-difluoro-2-methoxyphenyl)-N-(5-(hydroxymethyl)pyrazin-2-yl)-4,5-dimethyl-5-(trifluoromethyl)tetrahydrofuran-2-carboxamide], the concentration for half-maximal inhibition (IC50) was in the range of 10 to 100 nM.
The molecule `COc1c([C@H]2[C@H](C(=O)Nc3cnc(CO)c(CO)c3)O[C@@](C)(C(F)(F)F)[C@H]2C)ccc(F)c1F` [Compound 87, (2R,3S,4S,5R)-N-(5,6-bis(hydroxymethyl)pyridin-3-yl)-3-(3,4-difluoro-2-methoxyphenyl)-4,5-dimethyl-5-(trifluoromethyl)tetrahydrofuran-2-carboxamide] yielded an IC50 of 100 to 1000 nM.
For `COc1c([C@@H]2[C@@H](C(=O)Nc3ccc([C@@H](O)CO)nc3)O[C@](C)(C(F)(F)F)[C@@H]2C)cccc1C(F)(F)F` (single isomer, unassigned) [Compound 69, rel-(2S,3R,4R,5S)-N-(6-((R*)-1,2-dihydroxyethyl)pyridin-3-yl)-3-(2-methoxy-3-(trifluoromethyl)phenyl)-4,5-dimethyl-5-(trifluoromethyl)tetrahydrofuran-2-carboxamide] the value was no less than 1000 nM; for `COc1c([C@H]2[C@H](C(=O)Nc3ccc(CO)nc3)O[C@@](C)(C(F)(F)F)[C@H]2C)ccc(F)c1F` [Compound 14, (2R,3S,4S,5R)-3-(3,4-difluoro-2-methoxyphenyl)-N-(6-(hydroxymethyl)pyridin-3-yl)-4,5-dimethyl-5-(trifluoromethyl)tetrahydrofuran-2-carboxamide], less than 10 nM.
In turn, `COc1c(C2C(C(=O)Nc3cnc(CO)nc3)OC(C)(C(F)(F)F)C2C)ccc(F)c1C(F)F` (single isomer, unassigned) [Compound 54] had an IC50 of less than 10 nM.
`COc1c([C@H]2[C@H](C(=O)Nc3ccc([C@H](O)CO)nc3)O[C@@](C)(C(F)(F)F)[C@H]2C)ccc(F)c1C(F)F` (single isomer, unassigned) [Compound 49, rel-(2R,3S,4S,5R)-3-(3-(difluoromethyl)-4-fluoro-2-methoxyphenyl)-N-(6-((S*)-1,2-dihydroxyethyl)pyridin-3-yl)-4,5-dimethyl-5-(trifluoromethyl)tetrahydrofuran-2-carboxamide] showed a concentration for half-maximal inhibition (IC50) of less than 10 nM.
For `COc1c([C@H]2[C@H](C(=O)Nc3ccc([C@@H](O)CO)nc3)O[C@@](C)(C(F)(F)F)[C@H]2C)ccc(F)c1C` (single isomer, unassigned) [Compound 47, rel-(2R,3S,4S,5R)-N-(6-((R*)-1,2-dihydroxyethyl)pyridin-3-yl)-3-(4-fluoro-2-methoxy-3-methylphenyl)-4,5-dimethyl-5-(trifluoromethyl)tetrahydrofuran-2-carboxamide] the value was less than 10 nM; for `CCOc1c([C@H]2[C@H](C(=O)Nc3ccc([C@H](O)CO)nc3)O[C@@](C)(C(F)(F)F)[C@H]2C)ccc(F)c1F` [Compound 6, (2R,3S,4S,5R)-N-(6-((S)-1,2-dihydroxyethyl)pyridin-3-yl)-3-(2-ethoxy-3,4-difluorophenyl)-4,5-dimethyl-5-(trifluoromethyl)tetrahydrofuran-2-carboxamide], less than 10 nM; for `Cc1c([C@@H]2[C@@H](C(=O)Nc3ccc(CO)nc3)O[C@](C)(C(F)(F)F)[C@@H]2C)ccc(F)c1F` (single isomer, unassigned) [Compound 78], no less than 1000 nM.
The molecule `COCCC(O)c1ccc(NC(=O)[C@@H]2O[C@@](C)(C(F)(F)F)[C@@H](C)[C@H]2c2ccc(F)c(F)c2OC)cn1` (single isomer, unassigned) [Compound 22, rel-(2R*,3S*,4S*,5R*)-3-(3,4-difluoro-2-methoxyphenyl)-N-(6-(1-hydroxy-3-methoxypropyl)pyridin-3-yl)-4,5-dimethyl-5-(trifluoromethyl)tetrahydrofuran-2-carboxamide] yielded an IC50 of 10 to 100 nM.
In turn, `COc1c([C@H]2[C@H](C(=O)Nc3cnc(C(O)CO)nc3)O[C@@](C)(C(F)(F)F)[C@H]2C)cccc1C(F)(F)F` (single isomer, unassigned) [Compound 73] registered an IC50 of 10 to 100 nM.
As to `COc1c(C2C(C(=O)Nc3ccc(CO)nc3)OC(C)(C(F)(F)F)C2C)cccc1C(F)(F)F` (single isomer, unassigned) [Compound 82], the IC50 was less than 10 nM.
For `COc1c(C2C(C(=O)Nc3ccc(CO)nc3)OC(C)(C(F)(F)F)C2C)cccc1C(F)(F)F` (single isomer, unassigned) [Compound 81] the value was no less than 1000 nM.
